# Assay results reported in patent US20230017045A1, “PYRIDINE AND PYRIMIDINE CARBOXYLATE HERBICIDES AND METHODS OF USE THEREOF” (Dow AgroSciences LLC, priority 2017, published 2023).
# System: test plant species
# Experiment: Post-emergent herbicidal activity test (greenhouse, foliar spray, visual growth reduction)
# Assay type: in vivo
# Details: post-emergence, 336 h, ECHCG: barnyardgrass (Echinochloa crus-galli), 140 g ai/ha, 14 days after application, read-out: Visual Growth Reduction (%) 14 Days After Application, ECHCG
# Summary of the method: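 Plants grown in greenhouse (15 h photoperiod, 23-29° C day/22-28° C night) to first or second true leaf stage were sprayed overhead with compound in acetone/water/isopropanol/DMSO/crop oil/X-77 carrier at 187 L/ha. Injury was scored visually after 14 d on a 0-100% scale versus solvent-blank and untreated controls.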
row,Structure (SMILES),pest or weed control at 140 g/ha [%]
1,"COC(=O)c1nc(-c2ccc(C)cc2)c(F)cc1Cl [F249, Methyl 3-chloro-5-fluoro-6-(p-tolyl)picolinate]",0 to 29
2,"COC(=O)c1nc(-c2ccc(OC(F)(F)F)cc2OC)c(F)cc1Cl [F215, Methyl 3-chloro-5-fluoro-6-(2-methoxy-4-(trifluoromethoxy)phenyl)picolinate]",85 to 94
3,"COC(=O)c1nc(-c2ccc(F)cc2F)ccc1Cl [F268, Methyl 3-chloro-6-(2,4-difluorophenyl) picolinate]",0 to 29

# Same assay, conditions: post-emergence, 336 h, IPOHE: ivy-leaf morning glory (Ipomoea hederacea), 140 g ai/ha, 14 days after application, read-out: Visual Growth Reduction (%) 14 Days After Application, IPOHE
row,Structure (SMILES),pest or weed control at 140 g/ha [%]
1,"COC(=O)c1nc(-c2ccc(C)cc2)c(F)cc1Cl [F249, Methyl 3-chloro-5-fluoro-6-(p-tolyl)picolinate]",0 to 29
2,"COC(=O)c1nc(-c2ccc(OC(F)(F)F)cc2OC)c(F)cc1Cl [F215, Methyl 3-chloro-5-fluoro-6-(2-methoxy-4-(trifluoromethoxy)phenyl)picolinate]",95 to 100
3,"COC(=O)c1nc(-c2ccc(F)cc2F)ccc1Cl [F268, Methyl 3-chloro-6-(2,4-difluorophenyl) picolinate]",0 to 29

# Same assay, conditions: post-emergence, 336 h, KCHSC: kochia (Bassia scoparia), 140 g ai/ha, 14 days after application, read-out: Visual Growth Reduction (%) 14 Days After Application, KCHSC
row,Structure (SMILES),pest or weed control at 140 g/ha [%]
1,"COC(=O)c1nc(-c2ccc(C)cc2)c(F)cc1Cl [F249, Methyl 3-chloro-5-fluoro-6-(p-tolyl)picolinate]",0 to 29
2,"COC(=O)c1nc(-c2ccc(OC(F)(F)F)cc2OC)c(F)cc1Cl [F215, Methyl 3-chloro-5-fluoro-6-(2-methoxy-4-(trifluoromethoxy)phenyl)picolinate]",75 to 84
3,"COC(=O)c1nc(-c2ccc(F)cc2F)ccc1Cl [F268, Methyl 3-chloro-6-(2,4-difluorophenyl) picolinate]",0 to 29

# Same assay, conditions: post-emergence, 336 h, ORYSA: rice (Oryza sativa), 140 g ai/ha, 14 days after application, read-out: Visual Growth Reduction (%) 14 Days After Application, ORYSA
row,Structure (SMILES),pest or weed control at 140 g/ha [%]
1,"COC(=O)c1nc(-c2ccc(C)cc2)c(F)cc1Cl [F249, Methyl 3-chloro-5-fluoro-6-(p-tolyl)picolinate]",0 to 29
2,"COC(=O)c1nc(-c2ccc(OC(F)(F)F)cc2OC)c(F)cc1Cl [F215, Methyl 3-chloro-5-fluoro-6-(2-methoxy-4-(trifluoromethoxy)phenyl)picolinate]",0 to 29
3,"COC(=O)c1nc(-c2ccc(F)cc2F)ccc1Cl [F268, Methyl 3-chloro-6-(2,4-difluorophenyl) picolinate]",0 to 29

# Same assay, conditions: post-emergence, 336 h, SETFA: giant foxtail (Setaria faberi), 140 g ai/ha, 14 days after application, read-out: Visual Growth Reduction (%) 14 Days After Application, SETFA
row,Structure (SMILES),pest or weed control at 140 g/ha [%]
1,"COC(=O)c1nc(-c2ccc(C)cc2)c(F)cc1Cl [F249, Methyl 3-chloro-5-fluoro-6-(p-tolyl)picolinate]",0 to 29
2,"COC(=O)c1nc(-c2ccc(OC(F)(F)F)cc2OC)c(F)cc1Cl [F215, Methyl 3-chloro-5-fluoro-6-(2-methoxy-4-(trifluoromethoxy)phenyl)picolinate]",95 to 100
3,"COC(=O)c1nc(-c2ccc(F)cc2F)ccc1Cl [F268, Methyl 3-chloro-6-(2,4-difluorophenyl) picolinate]",0 to 29

# Same assay, conditions: post-emergence, 336 h, SORVU: grain sorghum (Sorghum vulgare), 140 g ai/ha, 14 days after application, read-out: Visual Growth Reduction (%) 14 Days After Application, SORVU
row,Structure (SMILES),pest or weed control at 140 g/ha [%]
1,"COC(=O)c1nc(-c2ccc(C)cc2)c(F)cc1Cl [F249, Methyl 3-chloro-5-fluoro-6-(p-tolyl)picolinate]",0 to 29
2,"COC(=O)c1nc(-c2ccc(OC(F)(F)F)cc2OC)c(F)cc1Cl [F215, Methyl 3-chloro-5-fluoro-6-(2-methoxy-4-(trifluoromethoxy)phenyl)picolinate]",95 to 100
3,"COC(=O)c1nc(-c2ccc(F)cc2F)ccc1Cl [F268, Methyl 3-chloro-6-(2,4-difluorophenyl) picolinate]",60 to 74

# Same assay, conditions: post-emergence, 336 h, STEME: common chickweed (Stellaria media), 140 g ai/ha, 14 days after application, read-out: Visual Growth Reduction (%) 14 Days After Application, STEME
row,Structure (SMILES),pest or weed control at 140 g/ha [%]
1,"COC(=O)c1nc(-c2ccc(C)cc2)c(F)cc1Cl [F249, Methyl 3-chloro-5-fluoro-6-(p-tolyl)picolinate]",0 to 29
2,"COC(=O)c1nc(-c2ccc(OC(F)(F)F)cc2OC)c(F)cc1Cl [F215, Methyl 3-chloro-5-fluoro-6-(2-methoxy-4-(trifluoromethoxy)phenyl)picolinate]",30 to 44
3,"COC(=O)c1nc(-c2ccc(F)cc2F)ccc1Cl [F268, Methyl 3-chloro-6-(2,4-difluorophenyl) picolinate]",0 to 29

# Same assay, conditions: post-emergence, 336 h, TRZAS: wheat, spring (Triticum aestivum), 140 g ai/ha, 14 days after application, read-out: Visual Growth Reduction (%) 14 Days After Application, TRZAS
row,Structure (SMILES),pest or weed control at 140 g/ha [%]
1,"COC(=O)c1nc(-c2ccc(C)cc2)c(F)cc1Cl [F249, Methyl 3-chloro-5-fluoro-6-(p-tolyl)picolinate]",0 to 29
2,"COC(=O)c1nc(-c2ccc(OC(F)(F)F)cc2OC)c(F)cc1Cl [F215, Methyl 3-chloro-5-fluoro-6-(2-methoxy-4-(trifluoromethoxy)phenyl)picolinate]",45 to 59
3,"COC(=O)c1nc(-c2ccc(F)cc2F)ccc1Cl [F268, Methyl 3-chloro-6-(2,4-difluorophenyl) picolinate]",0 to 29

# Same assay, conditions: post-emergence, 336 h, blackgrass (Alopecurus myosuroides), 14 Days After Application, 140 g ai/ha, read-out: Visual Growth Reduction (%) ALOMY
row,Structure (SMILES),pest or weed control at 140 g/ha [%]
1,"COC(=O)c1nc(-c2ccc(C)cc2)c(F)cc1Cl [F249, Methyl 3-chloro-5-fluoro-6-(p-tolyl)picolinate]",0 to 29
2,"COC(=O)c1nc(-c2ccc(OC(F)(F)F)cc2OC)c(F)cc1Cl [F215, Methyl 3-chloro-5-fluoro-6-(2-methoxy-4-(trifluoromethoxy)phenyl)picolinate]",0 to 29
3,"COC(=O)c1nc(-c2ccc(F)cc2F)ccc1Cl [F268, Methyl 3-chloro-6-(2,4-difluorophenyl) picolinate]",0 to 29

# Same assay, conditions: post-emergence, 336 h, canada thistle (Cirsium arvense), 14 Days After Application, 140 g ai/ha, read-out: Visual Growth Reduction (%) CIRAR
row,Structure (SMILES),pest or weed control at 140 g/ha [%]
1,"COC(=O)c1nc(-c2ccc(C)cc2)c(F)cc1Cl [F249, Methyl 3-chloro-5-fluoro-6-(p-tolyl)picolinate]",0 to 29
2,"COC(=O)c1nc(-c2ccc(OC(F)(F)F)cc2OC)c(F)cc1Cl [F215, Methyl 3-chloro-5-fluoro-6-(2-methoxy-4-(trifluoromethoxy)phenyl)picolinate]",85 to 94
3,"COC(=O)c1nc(-c2ccc(F)cc2F)ccc1Cl [F268, Methyl 3-chloro-6-(2,4-difluorophenyl) picolinate]",30 to 44

# Same assay, conditions: post-emergence, 336 h, crabgrass (Digitaria sanguinalis), 14 Days After Application, 140 g ai/ha, read-out: Visual Growth Reduction (%) DIGSA
row,Structure (SMILES),pest or weed control at 140 g/ha [%]
1,"COC(=O)c1nc(-c2ccc(C)cc2)c(F)cc1Cl [F249, Methyl 3-chloro-5-fluoro-6-(p-tolyl)picolinate]",0 to 29
2,"COC(=O)c1nc(-c2ccc(OC(F)(F)F)cc2OC)c(F)cc1Cl [F215, Methyl 3-chloro-5-fluoro-6-(2-methoxy-4-(trifluoromethoxy)phenyl)picolinate]",45 to 59
3,"COC(=O)c1nc(-c2ccc(F)cc2F)ccc1Cl [F268, Methyl 3-chloro-6-(2,4-difluorophenyl) picolinate]",0 to 29

# Same assay, conditions: post-emergence, 336 h, lambsquarters (Chenopodium album), 14 Days After Application, 140 g ai/ha, read-out: Visual Growth Reduction (%) CHEAL
row,Structure (SMILES),pest or weed control at 140 g/ha [%]
1,"COC(=O)c1nc(-c2ccc(C)cc2)c(F)cc1Cl [F249, Methyl 3-chloro-5-fluoro-6-(p-tolyl)picolinate]",60 to 74
2,"COC(=O)c1nc(-c2ccc(OC(F)(F)F)cc2OC)c(F)cc1Cl [F215, Methyl 3-chloro-5-fluoro-6-(2-methoxy-4-(trifluoromethoxy)phenyl)picolinate]",85 to 94
3,"COC(=O)c1nc(-c2ccc(F)cc2F)ccc1Cl [F268, Methyl 3-chloro-6-(2,4-difluorophenyl) picolinate]",60 to 74

# Same assay, conditions: post-emergence, 336 h, redroot pigweed (Amaranthus retroflexus), 14 Days After Application, 140 g ai/ha, read-out: Visual Growth Reduction (%) AMARE
row,Structure (SMILES),pest or weed control at 140 g/ha [%]
1,"COC(=O)c1nc(-c2ccc(C)cc2)c(F)cc1Cl [F249, Methyl 3-chloro-5-fluoro-6-(p-tolyl)picolinate]",0 to 29
2,"COC(=O)c1nc(-c2ccc(OC(F)(F)F)cc2OC)c(F)cc1Cl [F215, Methyl 3-chloro-5-fluoro-6-(2-methoxy-4-(trifluoromethoxy)phenyl)picolinate]",85 to 94
3,"COC(=O)c1nc(-c2ccc(F)cc2F)ccc1Cl [F268, Methyl 3-chloro-6-(2,4-difluorophenyl) picolinate]",0 to 29

# Same assay, conditions: post-emergence, 336 h, wild oat (Avena fatua), 14 Days After Application, 140 g ai/ha, read-out: Visual Growth Reduction (%) AVEFA
row,Structure (SMILES),pest or weed control at 140 g/ha [%]
1,"COC(=O)c1nc(-c2ccc(C)cc2)c(F)cc1Cl [F249, Methyl 3-chloro-5-fluoro-6-(p-tolyl)picolinate]",0 to 29
2,"COC(=O)c1nc(-c2ccc(OC(F)(F)F)cc2OC)c(F)cc1Cl [F215, Methyl 3-chloro-5-fluoro-6-(2-methoxy-4-(trifluoromethoxy)phenyl)picolinate]",60 to 74
3,"COC(=O)c1nc(-c2ccc(F)cc2F)ccc1Cl [F268, Methyl 3-chloro-6-(2,4-difluorophenyl) picolinate]",0 to 29

# Same assay, conditions: post-emergence, 336 h, yellow nutsedge (Cyperus esculentus), 14 Days After Application, 140 g ai/ha, read-out: Visual Growth Reduction (%) CYPES
row,Structure (SMILES),pest or weed control at 140 g/ha [%]
1,"COC(=O)c1nc(-c2ccc(C)cc2)c(F)cc1Cl [F249, Methyl 3-chloro-5-fluoro-6-(p-tolyl)picolinate]",0 to 29
2,"COC(=O)c1nc(-c2ccc(OC(F)(F)F)cc2OC)c(F)cc1Cl [F215, Methyl 3-chloro-5-fluoro-6-(2-methoxy-4-(trifluoromethoxy)phenyl)picolinate]",0 to 29
3,"COC(=O)c1nc(-c2ccc(F)cc2F)ccc1Cl [F268, Methyl 3-chloro-6-(2,4-difluorophenyl) picolinate]",0 to 29
